In assay [1] the test system is JAK1-dependent STAT6 phosphorylation downstream of IL-13 stimulation in BEAS-2B human bronchial epithelial cells. The assay is described as follows: JAK1 pathway assay in BEAS-2B cells (IL-13-pSTAT6, MSD). In kind it is cell-based. To be noted: read-out: IL13-pSTAT6 EC50 (uM)_BEAS-2B. The method, boiled down:
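TF-1 cells starved of GM-CSF overnight, assayed serum-free; BEAS-2B cells in complete growth medium. Lysate pSTAT6 measured by MSD; EC50 derived.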

In assay [2] the target is isolated recombinant JAK2 kinase domain (Homo sapiens (Human), UniProt O60674). The assay can be described thus: JAK2 enzyme assay (Caliper LabChip, peptide phosphorylation). It counts as biochemical. The note with it: 25 μM ATP.
Chain of isolated recombinant JAK2 kinase domain (O60674 849-1124): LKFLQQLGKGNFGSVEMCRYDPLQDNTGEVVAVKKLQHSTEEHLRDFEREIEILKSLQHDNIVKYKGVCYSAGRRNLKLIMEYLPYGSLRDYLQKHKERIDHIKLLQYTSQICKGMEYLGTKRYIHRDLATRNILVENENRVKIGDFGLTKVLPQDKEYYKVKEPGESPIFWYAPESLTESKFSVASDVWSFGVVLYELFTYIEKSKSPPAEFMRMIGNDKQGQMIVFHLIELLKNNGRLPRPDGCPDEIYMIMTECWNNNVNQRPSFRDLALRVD
In assay [3] the target is isolated recombinant JAK1 kinase domain (Homo sapiens (Human), UniProt P23458). The assay is described as follows: JAK1 enzyme assay (Caliper LabChip, peptide phosphorylation). The note with it: isolated recombinant JAK1 kinase domain, 25 μM ATP. It counts as biochemical.
Chain of isolated recombinant JAK1 kinase domain (P23458 875-1153): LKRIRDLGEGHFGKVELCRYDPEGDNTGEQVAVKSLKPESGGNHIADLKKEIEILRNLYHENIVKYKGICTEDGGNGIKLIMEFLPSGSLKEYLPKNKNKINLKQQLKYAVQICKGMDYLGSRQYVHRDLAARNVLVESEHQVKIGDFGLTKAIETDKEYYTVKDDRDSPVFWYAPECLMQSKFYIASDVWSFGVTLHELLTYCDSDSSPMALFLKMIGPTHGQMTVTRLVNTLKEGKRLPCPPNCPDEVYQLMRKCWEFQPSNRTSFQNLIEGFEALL

Structures can show the parent of a compound that is named as a salt.

The source of these data is US9346815B2, “5-chloro-2-difluoromethoxyphenyl pyrazolopyrimidine compounds, compositions and methods of use thereof” (Genentech, Inc., priority 2014, dated 2016).

Usually EC50 stands for the concentration at which the effect is half-maximal. For orientation: Ki means the equilibrium dissociation constant of an inhibitor or competing ligand from its target. Take `CCOC(=O)C1CCN(CCN2CCN(C(=O)Cn3cc(NC(=O)c4cnn5cccnc45)c(-c4cc(Cl)ccc4OC(F)F)n3)CC2)CC1` [Example 334, ethyl 1-[2-[4-(2-[3-[5-chloro-2-(difluoromethoxy)phenyl]-4-[pyrazolo[1,5-a]pyrimidine-3-amido]-1H-pyrazol-1-yl]acetyl)piperazin-1-yl]ethyl]piperidine-4-carboxylate]: the EC50 in assay [1] came to 0.0061 µM. The Ki turned out to be 1.81 nM in assay [2] and 0.69 nM in assay [3].
With `COC(=O)C1(C)CCN(CCN2CCN(C(=O)Cn3cc(NC(=O)c4cnn5cccnc45)c(-c4cc(Cl)ccc4OC(F)F)n3)CC2)CC1` [Example 335, methyl 1-[2-[4-(2-[3-[5-chloro-2-(difluoromethoxy)phenyl]-4-[pyrazolo[1,5-a]pyrimidine-3-amido]-1H-pyrazol-1-yl]acetyl)piperazin-1-yl]ethyl]-4-methylpiperidine-4-carboxylate formate], the EC50 in assay [1] was 0.0121 µM. Further, the Ki in assay [2] worked out at 2.22 nM; in assay [3], 0.84 nM.
For `O=C(Nc1cn(CC(=O)N2CCC(C(=O)OCCN3CCOCC3)CC2)nc1-c1cc(Cl)ccc1OC(F)F)c1cnn2cccnc12` [Example 336, 2-(morpholin-4-yl)ethyl 1-(2-[3-[5-chloro-2-(difluoromethoxy)phenyl]-4-[pyrazolo[1,5-a]pyrimidine-3-amido]-1H-pyrazol-1-yl]acetyl)piperidine-4-carboxylate] the same measures were 0.0145 µM, 1.05 nM and 0.49 nM.
For `CCOC(=O)C1(C)CCN(CCN2CCN(C(=O)Cn3cc(NC(=O)c4cnn5cccnc45)c(-c4cc(Cl)ccc4OC(F)F)n3)CC2)CC1` [Example 337, ethyl 1-[2-[4-(2-[3-[5-chloro-2-(difluoromethoxy)phenyl]-4-[pyrazolo[1,5-a]pyrimidine-3-amido]-1H-pyrazol-1-yl]acetyl)piperazin-1-yl]ethyl]-4-methylpiperidine-4-carboxylate formate] the same measures were 0.0232 µM, 2.52 nM and 0.83 nM.
For `CC1(C(=O)OCCN2CCOCC2)CCN(C(=O)Cn2cc(NC(=O)c3cnn4cccnc34)c(-c3cc(Cl)ccc3OC(F)F)n2)CC1` [Example 339, 2-(morpholin-4-yl)ethyl1-(2-[3-[5-chloro-2-(difluoromethoxy)phenyl]-4-[pyrazolo[1,5-a]pyrimidine-3-amido]-1H-pyrazol-1-yl]acetyl)-4-methylpiperidine-4-carboxylate] the same measures were 0.0094 µM, 1.01 nM and 0.41 nM.
`CN(C)CCOC(=O)C1(C)CCN(C(=O)Cn2cc(NC(=O)c3cnn4cccnc34)c(-c3cc(Cl)ccc3OC(F)F)n2)CC1` [Example 340, 2-(dimethylamino)ethyl 1-(2-[3-[5-chloro-2-(difluoromethoxy)phenyl]-4-[pyrazolo[1,5-a]pyrimidine-3-amido]-1H-pyrazol-1-yl]acetyl)-4-methylpiperidine-4-carboxylate]: the EC50 in assay [1] was found to be 0.009 µM. Further, the Ki in assay [2] is 1.79 nM; in assay [3], 0.44 nM.
For `O=C(Nc1cn(CC(=O)N2CCC(C(=O)OCC3CCNCC3)CC2)nc1-c1cc(Cl)ccc1OC(F)F)c1cnn2cccnc12` [Example 341, piperidin-4-ylmethyl 1-(2-[3-[5-chloro-2-(difluoromethoxy)phenyl]-4-[pyrazolo[1,5-a]pyrimidine-3-amido]-1H-pyrazol-1-yl]acetyl)piperidine-4-carboxylate] the same measures were 0.534 µM, 2.62 nM and 0.53 nM.
For `O=C(Nc1cn(CC(=O)N2CCC(C(=O)O)CC2)nc1-c1cc(Cl)ccc1OC(F)F)c1cnn2cccnc12` [Example 342, 1-(2-[3-[5-chloro-2-(difluoromethoxy)phenyl]-4-[pyrazolo[1,5-a]pyrimidine-3-amido]-1H-pyrazol-1-yl]acetyl)piperidine-4-carboxylic acid] the same measures were 1.81 µM, 0.2 nM and 0.19 nM.
For `CN(CC1CCC(=O)O1)C1CCN(C(=O)Cn2cc(NC(=O)c3cnn4cccnc34)c(-c3cc(Cl)ccc3OC(F)F)n2)CC1` (stereo not drawn) [Example 344, N-[3-[5-chloro-2-(difluoromethoxy)phenyl]-1-[2-(4-[methyl[(5-oxooxolan-2-yl)methyl]amino]piperidin-1-yl)-2-oxoethyl]-1H-pyrazol-4-yl]pyrazolo[1,5-a]pyrimidine-3-carboxamide] the same measures were 0.0484 µM, 1.9 nM and 0.7 nM.
Regarding `COC(=O)CCN(C)C1CCN(C(=O)Cn2cc(NC(=O)c3cnn4cccnc34)c(-c3cc(Cl)ccc3OC(F)F)n2)CC1` [Example 345, methyl 3-[[1-(2-[3-[5-chloro-2-(difluoromethoxy)phenyl]-4-[pyrazolo[1,5-a]pyrimidine-3-amido]-1H-pyrazol-1-yl]acetyl)piperidin-4-yl](methyl)amino]propanoate], the EC50 in assay [1] is 0.0166 µM. Also, the inhibitory constant (Ki) in assay [2] was found to be 1.47 nM; in assay [3], 0.59 nM.
For `CSc1ccc(CNCCn2cc(NC(=O)c3cnn4cccnc34)c(-c3cc(Cl)ccc3OC(F)F)n2)cc1` [Example 346, N-[3-[5-chloro-2-(difluoromethoxy)phenyl]-1-[2-([[4-(methylsulfanyl)phenyl]methyl]amino)ethyl]-1H-pyrazol-4-yl]pyrazolo[1,5-a]pyrimidine-3-carboxamide formate] the same measures were 0.115 µM, 0.31 nM and 0.37 nM.
For `O=C1CC(N2CCN(C(=O)Cn3cc(NC(=O)c4cnn5cccnc45)c(-c4cc(Cl)ccc4OC(F)F)n3)CC2)CCO1` (stereo not drawn) [Example 347, N-[3-[5-chloro-2-(difluoromethoxy)phenyl]-1-[2-oxo-2-[4-(2-oxooxan-4-yl)piperazin-1-yl]ethyl]-1H-pyrazol-4-yl]pyrazolo[1,5-a]pyrimidine-3-carboxamide] the same measures were 0.0307 µM, 0.76 nM and 0.39 nM.
For `CN1CCN(C2CCN(C(=O)Cn3cc(NC(=O)c4cnn5cccnc45)c(-c4cc(Cl)ccc4OC(F)F)n3)CC2)CC1` [Example 349, N-[3-[5-chloro-2-(difluoromethoxy)phenyl]-1-[2-[4-(4-methylpiperazin-1-yl)piperidin-1-yl]-2-oxoethyl]-1H-pyrazol-4-yl]pyrazolo[1,5-a]pyrimidine-3-carboxamide] the same measures were 0.0155 µM, 1.65 nM and 0.55 nM.
Consider `CN1CCN(CC2CCN(C(=O)Cn3cc(NC(=O)c4cnn5cccnc45)c(-c4cc(Cl)ccc4OC(F)F)n3)CC2)CC1` [Example 350, N-[3-[5-chloro-2-(difluoromethoxy)phenyl]-1-(2-[4-[(4-methylpiperazin-1-yl)methyl]piperidin-1-yl]-2-oxoethyl)-1H-pyrazol-4-yl]pyrazolo[1,5-a]pyrimidine-3-carboxamide], for which the EC50 in assay [1] stood at 0.0094 µM. Moreover, the Ki was determined as 1.42 nM in assay [2] and 0.43 nM in assay [3].
For `O=C1C=C(CN2CCN(C(=O)Cn3cc(NC(=O)c4cnn5cccnc45)c(-c4cc(Cl)ccc4OC(F)F)n3)CC2)CO1` [Example 351, N-[3-[5-chloro-2-(difluoromethoxy)phenyl]-1-(2-oxo-2-[4-[(5-oxo-2,5-dihydrofuran-3-yl)methyl]piperazin-1-yl]ethyl)-1H-pyrazol-4-yl]pyrazolo[1,5-a]pyrimidine-3-carboxamide] the same measures were 0.0365 µM, 0.94 nM and 0.46 nM.
For `CN(CC1=CC(=O)OC1)C1CCN(C(=O)Cn2cc(NC(=O)c3cnn4cccnc34)c(-c3cc(Cl)ccc3OC(F)F)n2)CC1` [Example 352, N-[3-[5-chloro-2-(difluoromethoxy)phenyl]-1-[2-(4-[methyl[(5-oxo-2,5-dihydrofuran-3-yl)methyl]amino]piperidin-1-yl)-2-oxoethyl]-1H-pyrazol-4-yl]pyrazolo[1,5-a]pyrimidine-3-carboxamide] the same measures were 0.0124 µM, 0.75 nM and 0.33 nM.
Regarding `O=C(Nc1cn([C@@H]2CCNC[C@H]2O)nc1-c1cc(Cl)ccc1OC(F)F)c1cnn2cccnc12` [Example 358, N-[3-[5-chloro-2-(difluoromethoxy)phenyl]-1-[(3R,4R)-3-hydroxypiperidin-4-yl]-1H-pyrazol-4-yl]pyrazolo[1,5-a]pyrimidine-3-carboxamide], the EC50 in assay [1] worked out at 0.0133 µM. For the same compound, the Ki in assay [2] is 0.66 nM; in assay [3], 0.93 nM.
For `O=C(Nc1cn([C@H]2CCNC[C@@H]2O)nc1-c1cc(Cl)ccc1OC(F)F)c1cnn2cccnc12` [Example 359, N-[3-[5-chloro-2-(difluoromethoxy)phenyl]-1-[(3S,4S)-3-hydroxypiperidin-4-yl]-1H-pyrazol-4-yl]pyrazolo[1,5-a]pyrimidine-3-carboxamide] the same measures were 0.0309 µM, 2.7 nM and 3.85 nM.
For `O=C(O)CN(CCn1cc(NC(=O)c2cnn3cccnc23)c(-c2cc(Cl)ccc2OC(F)F)n1)Cc1cccnc1` [Example 363, 2-[(2-[3-[5-chloro-2-(difluoromethoxy)phenyl]-4-[pyrazolo[1,5-a]pyrimidine-3-amido]-1H-pyrazol-1-yl]ethyl)(pyridin-3-ylmethyl)amino]acetic acid] the same measures were 3.78 µM, 1.21 nM and 4.15 nM.
For `O=C(O)CNC1CCN(C(=O)Cn2cc(NC(=O)c3cnn4cccnc34)c(-c3cc(Cl)ccc3OC(F)F)n2)CC1` [Example 365, 2-[[1-(2-[3-[5-chloro-2-(difluoromethoxy)phenyl]-4-[pyrazolo[1,5-a]pyrimidine-3-amido]-1H-pyrazol-1-yl]acetyl)piperidin-4-yl]amino]acetic acid] the same measures were 7.56 µM, 0.55 nM and 0.41 nM.
